Where a SMILES comes first, the peptide text is derived from it.
What was measured:
[1] = reported in U.S. Patent No. 4,411,925; cited from earlier work
[2] = disclosed by Zeng et al.; cited from earlier work
[3] = Sweetness potency: four tasters compare dilutions of the test compound with a 200 ppm aspartame solution; assay type: in vivo; conditions: against 200 ppm aspartame solution, aspartame taken as 180 times sucrose
Procedure: The sweetness potency was determined by having four tasters compare the sweetness of various dilutions of the test compound with a 200 ppm equivalent solution of aspartame, wherein the sweetness of aspartame was taken to be 180 times sucrose. […]

[4] = value adopted for the reference solution; cited from earlier work

| Compound | Sweetness [3] | further results |
| --- | --- | --- |
| C[C@@H](NC(=O)[C@@H](N)CC(=O)O)C(=O)NC(C1CC1)C(C)(C)C (mixture of isomers) [L-aspartyl-D-alanine amide of (+/-) t-butyl-cyclopropyl methylamine] | – | sweetness potency (SP) [1]: 1200 times sucrose |
| Cc1cccc(C)c1NC(=O)[C@@H](C)NC(=O)[C@@H](N)CC(=O)O [2,6-dimethyl-aniline amide] | – | sweetness potency [2]: 500 times the sweetness of sucrose |
| C[C@H](NC(=O)[C@@H](C)NC(=O)[C@@H](N)CC(=O)O)c1ccccc1 [Example 2, L-aspartyl-D-alanine-N-(S)-α-methyl-benzylamide] | 180 times sucrose | – |
| CC[C@@H](NC(=O)[C@@H](N)CC(=O)O)C(=O)N[C@@H](C)c1ccccc1 [Example 3, L-aspartyl-D-α-aminobutyric-acid N-(S)-α-methylbenzyl amide] | 360 times sucrose | – |
| CCC[C@@H](NC(=O)[C@@H](N)CC(=O)O)C(=O)N[C@@H](C)c1ccccc1 [Example 4, L-aspartyl-D-α-aminopentanoic-acid-N-(S)-α-methylbenzyl amide] | 90 times sucrose | – |
| CC(C)[C@@H](NC(=O)[C@@H](N)CC(=O)O)C(=O)N[C@@H](C)c1ccccc1 [Example 5, L-aspartyl-D-valine-N-(S)-α-methylbenzyl amide] | 540 times sucrose | – |
| C[C@H](NC(=O)[C@H](NC(=O)[C@@H](N)CC(=O)O)c1ccccc1)c1ccccc1 [Example 6, L-aspartyl-D-phenylglycine-N-(S)-α-methylbenzyl amide] | 270 times sucrose | – |
| C[C@@H](NC(=O)[C@@H](N)CC(=O)O)C(=O)N[C@H](C)c1ccccc1 [Example 7, L-aspartyl-D-alanine-N-(R)-α-methylbenzyl amide] | less than 10 times sucrose | – |
| CCC(NC(=O)[C@@H](C)NC(=O)[C@@H](N)CC(=O)O)c1ccccc1 (stereo partly drawn) [Example 8, L-aspartyl-D-alanine-N-(R,S)-α-ethylbenzyl amide] | 270 times sucrose | – |
| CC(C)C(NC(=O)[C@@H](C)NC(=O)[C@@H](N)CC(=O)O)c1ccccc1 (stereo partly drawn) [Example 9, L-aspartyl-D-alanine-N-(R,S)-α-isopropylbenzyl amide] | 180 times sucrose | – |
| C[C@@H](NC(=O)[C@@H](N)CC(=O)O)C(=O)NC(c1ccccc1)C(C)(C)C (stereo partly drawn) [Example 10, L-aspartyl-D-alanine-N-(R,S)-α-t-butylbenzyl amide] | 150 times sucrose | – |
| CCCC(NC(=O)[C@@H](C)NC(=O)[C@@H](N)CC(=O)O)c1ccccc1 (stereo partly drawn) [Example 11, L-aspartyl-D-alanine-N-(R,S)-α-n-propylbenzyl amide] | 90 times sucrose | – |
| C[C@@H](NC(=O)[C@@H](N)CC(=O)O)C(=O)NC(c1ccccc1)c1ccccc1 [Example 12, L-aspartyl-D-alanine-N-α-phenyl benzyl amide] | 180 times sucrose | – |
| C[C@@H](NC(=O)[C@@H](N)CC(=O)O)C(=O)NC(c1ccccc1)C1CC1 (stereo partly drawn) [Example 13, L-aspartyl-D-alanine-N-α-cyclopropyl benzyl amide] | 1,080 times sucrose | – |
| CC[C@H](NC(=O)[C@@H](CC)NC(=O)[C@@H](N)CC(=O)O)c1ccccc1 [Example 14, L-aspartyl-D-α-aminobutyric acid-N-(S)-α-ethylbenzyl amide] | 2500 x Sucrose | Sweetness ([3]; listed as L-aspartyl-D-α-aminobutyric-acid-(S)-N-α-alkylbenzyl amide): 2500 times sucrose |
| CC[C@H](NC(=O)[C@H](NC(=O)[C@@H](N)CC(=O)O)C(C)C)c1ccccc1 [Example 15, L-aspartyl-D-valine-N-(S)-α-ethylbenzyl amide] | 1500 times sucrose | – |
| CC[C@@H](NC(=O)[C@@H](N)CC(=O)O)C(=O)NC(C1CC1)C1CC1 [R = ethyl] | – | sweetness potency (SP) [1]: 500 times sucrose |
| CC(C)[C@@H](NC(=O)[C@@H](N)CC(=O)O)C(=O)NC(C1CC1)C1CC1 [R = isopropyl] | – | sweetness potency (SP) [1]: 110 times sucrose |
| C[C@@H](NC(=O)[C@@H](N)CC(=O)O)C(=O)NC(C1CC1)C1CC1 [R = methyl] | – | sweetness potency (SP) [1]: 1200 times sucrose |
| COC(=O)[C@H](Cc1ccccc1)NC(=O)[C@@H](N)CC(=O)O [aspartame] (H-Asp-Phe-OMe) | – | sweetness of aspartame (adopted reference value) [4]: 180 times sucrose |

— patent EP0779296A2, “D-alpha-aminoalkanoyl-(S)-N-alpha-alkylbenzyl amides useful as intermediates for artificial sweeteners” (THE COCA-COLA COMPANY, priority 1992, dated 1994)
